Columns and labels:
[1] = xn = mol fraction of the nth substance listed; settings: 101 kPa, Liquid, Concentric cylinders viscometry
[2] = 303.15 K; 101.33 kPa; Liquid; Concentric cylinders viscometry

CCCCCCCCC [nonane] + CC(C)(C)O
viscosity [mPa·s], [1]
Settings | 303.15 K | 308.15 K | 313.15 K | 318.15 K | 323.15 K
x2 = 0 | 0.6323 | 0.5974 | 0.5652 | 0.5352 | 0.5073
x2 = 0.1012 | 0.6377 | 0.5996 | 0.5644 | 0.532 | 0.502
x2 = 0.2008 | 0.6593 | 0.6177 | 0.5795 | 0.5442 | 0.5114
x2 = 0.3 | 0.6872 | 0.6414 | 0.5995 | 0.5608 | 0.5247
x2 = 0.3999 | 0.7276 | 0.676 | 0.6289 | 0.5857 | 0.5459
x2 = 0.4995 | 0.7904 | 0.7297 | 0.6749 | 0.6251 | 0.5795
x2 = 0.5998 | 0.8796 | 0.8038 | 0.7366 | 0.6766 | 0.6227
x2 = 0.6991 | 1.027 | 0.923 | 0.8336 | 0.7558 | 0.6874
x2 = 0.7997 | 1.297 | 1.136 | 1.003 | 0.8918 | 0.7976
x2 = 0.9 | 1.856 | 1.556 | 1.323 | 1.137 | 0.9883
x2 = 0.9494 | 2.392 | 1.944 | 1.608 | 1.351 | 1.151

CCCCCCCCCC [decane]
Settings | viscosity [mPa·s]
[2] | 0.7838

CCCCCCCC [octane]
Settings | viscosity [mPa·s]
[2] | 0.4918

CCCCCCCCCC [decane] + CC(C)(C)O
viscosity [mPa·s], [1]
Settings | 303.15 K | 308.15 K | 313.15 K | 318.15 K | 323.15 K
x2 = 0 | 0.7838 | 0.7337 | 0.6883 | 0.6466 | 0.6085
x2 = 0.1003 | 0.7786 | 0.7263 | 0.6791 | 0.6362 | 0.597
x2 = 0.2001 | 0.7925 | 0.7382 | 0.6879 | 0.6422 | 0.6002
x2 = 0.3 | 0.825 | 0.7653 | 0.7104 | 0.6604 | 0.6153
x2 = 0.3997 | 0.8622 | 0.7934 | 0.7326 | 0.6775 | 0.627
x2 = 0.5 | 0.9148 | 0.8404 | 0.7726 | 0.7125 | 0.6566
x2 = 0.5999 | 0.9861 | 0.8974 | 0.8188 | 0.7493 | 0.6869
x2 = 0.6997 | 1.129 | 1.01 | 0.9091 | 0.8219 | 0.7459
x2 = 0.8001 | 1.372 | 1.199 | 1.058 | 0.9404 | 0.8399
x2 = 0.8999 | 1.937 | 1.621 | 1.376 | 1.182 | 1.024
x2 = 0.9499 | 2.366 | 1.948 | 1.614 | 1.357 | 1.155

CCCCCCCC [octane] + CC(C)(C)O
[1], x2 = 0
Settings | viscosity [mPa·s]
303.15 K | 0.4918
308.15 K | 0.4684
313.15 K | 0.447
318.15 K | 0.425
323.15 K | 0.4049

CC(C)(C)O [2-methylpropan-2-ol] + CCCCCCC
viscosity [mPa·s], [1]
Settings | 303.15 K | 308.15 K | 313.15 K | 318.15 K | 323.15 K
x1 = 0.103 | 0.3899 | 0.3703 | 0.353 | 0.3329 | 0.3144
x1 = 0.2002 | 0.4118 | 0.3885 | 0.367 | 0.3441 | 0.3201
x1 = 0.3006 | 0.4501 | 0.4228 | 0.3983 | 0.3737 | 0.3489
x1 = 0.3999 | 0.4922 | 0.463 | 0.433 | 0.4062 | 0.3805
x1 = 0.5001 | 0.558 | 0.5194 | 0.4838 | 0.4507 | 0.419
x1 = 0.6001 | 0.6624 | 0.6063 | 0.5587 | 0.5157 | 0.4765
x1 = 0.6996 | 0.8071 | 0.7282 | 0.667 | 0.6022 | 0.5477
x1 = 0.8001 | 1.1 | 0.9711 | 0.8581 | 0.7681 | 0.6836
x1 = 0.9 | 1.699 | 1.426 | 1.214 | 1.044 | 0.9079
x1 = 0.95 | 2.263 | 1.86 | 1.541 | 1.293 | 1.096
x1 = 1 | 3.387 | 2.63 | 2.097 | 1.707 | 1.415

CCCCCCC [heptane] + CC(C)(C)O
[1], x2 = 0
Settings | viscosity [mPa·s]
303.15 K | 0.3773
308.15 K | 0.3603
313.15 K | 0.3432
318.15 K | 0.3269
323.15 K | 0.3106

CC(C)(C)O [2-methylpropan-2-ol] + CCCCCCCCC
[1], x1 = 1
Settings | viscosity [mPa·s]
303.15 K | 3.387
308.15 K | 2.63
313.15 K | 2.097
318.15 K | 1.707
323.15 K | 1.415

CCCCCCC [heptane]
Settings | viscosity [mPa·s]
[2] | 0.3773

CCCCCCCCC [nonane]
Settings | viscosity [mPa·s]
[2] | 0.6323

CC(C)(C)O [2-methylpropan-2-ol]
Settings | viscosity [mPa·s]
[2] | 3.387

CC(C)(C)O [2-methylpropan-2-ol] + CCCCCCCC
viscosity [mPa·s], [1]
Settings | 303.15 K | 308.15 K | 313.15 K | 318.15 K | 323.15 K
x1 = 0.1002 | 0.5022 | 0.4758 | 0.4509 | 0.4272 | 0.4044
x1 = 0.2002 | 0.5263 | 0.4972 | 0.47 | 0.4443 | 0.4198
x1 = 0.2996 | 0.558 | 0.525 | 0.4943 | 0.4656 | 0.4377
x1 = 0.4003 | 0.6031 | 0.5644 | 0.5287 | 0.4956 | 0.4646
x1 = 0.5006 | 0.6658 | 0.6186 | 0.5757 | 0.5363 | 0.5
x1 = 0.5998 | 0.7587 | 0.6975 | 0.6429 | 0.5938 | 0.549
x1 = 0.7 | 0.912 | 0.8243 | 0.7485 | 0.6822 | 0.6233
x1 = 0.799 | 1.187 | 1.044 | 0.9254 | 0.8261 | 0.7415
x1 = 0.8499 | 1.438 | 1.236 | 1.075 | 0.9428 | 0.833
x1 = 0.9 | 1.781 | 1.496 | 1.275 | 1.099 | 0.958
x1 = 0.9235 | 2.015 | 1.669 | 1.404 | 1.198 | 1.034
x1 = 0.9499 | 2.353 | 1.913 | 1.584 | 1.333 | 1.136
x1 = 1 | 3.387 | 2.63 | 2.097 | 1.707 | 1.415

CC(C)(C)O [2-methylpropan-2-ol] + CCCCCCCCCC
[1], x1 = 1
Settings | viscosity [mPa·s]
303.15 K | 3.387
308.15 K | 2.63
313.15 K | 2.097
318.15 K | 1.707
323.15 K | 1.415
